Results published in ChEMBL document CHEMBL1136398, “Non-peptide alphavbeta3 antagonists. Part 6: design and synthesis of alphavbeta3 antagonists containing a pyridone or pyrazinone central scaffold” (Bioorg Med Chem Lett, 2003).

Key:
[1] = Protein binding in human plasma; format: ADME, cell-free; conditions: read-out: PB (converted)
[2] = molecular target: T1, Integrin alpha-V/beta-3 (Homo sapiens, UniProt P05106+P06756); experiment: Inhibitory activity against human alphaV-beta3 integrin using SPAV3 assay; format: protein-complex assay
[3] = Half-life in vivo in dog by intravenous administration at a dose of 1 mg/kg; format: ADME, organism-based, Canis lupus familiaris; design: dose 1 mg/kg, route intravenous
[4] = tested on: Canis familiaris; experiment: Plasma clearance in vivo in dog by intravenous administration at a dose of 0.2 mg/kg; format: ADME, organism-based, Canis lupus familiaris; design: dose 0.2 mg/kg, route intravenous
[5] = Half-life in vivo in dog by intravenous administration at a dose of 0.2 mg/kg; format: ADME, organism-based, Canis lupus familiaris; design: dose 0.2 mg/kg, route intravenous
[6] = Partition coefficient (logP); format: physicochemical; conditions: octanol/water
[7] = tested on: Canis familiaris; experiment: Plasma clearance in vivo in dog by intravenous administration at a dose of 1 mg/kg; format: ADME, organism-based, Canis lupus familiaris; design: dose 1 mg/kg, route intravenous
[8] = molecular target: T1, Integrin alpha-V/beta-3; experiment: Inhibitory activity against human alpha V beta3 receptor using SPAV3 assay; format: protein-complex assay
[9] = Oral bioavailability in dog (dose 0.2 mg/kg i.v.); format: ADME, organism-based, Canis lupus familiaris; conditions: in vivo
[10] = Oral bioavailability in dog (dose 1 mg/kg i.v.); format: ADME, organism-based, Canis lupus familiaris; conditions: in vivo

T1 sequence (P05106 27-788 limits assumed): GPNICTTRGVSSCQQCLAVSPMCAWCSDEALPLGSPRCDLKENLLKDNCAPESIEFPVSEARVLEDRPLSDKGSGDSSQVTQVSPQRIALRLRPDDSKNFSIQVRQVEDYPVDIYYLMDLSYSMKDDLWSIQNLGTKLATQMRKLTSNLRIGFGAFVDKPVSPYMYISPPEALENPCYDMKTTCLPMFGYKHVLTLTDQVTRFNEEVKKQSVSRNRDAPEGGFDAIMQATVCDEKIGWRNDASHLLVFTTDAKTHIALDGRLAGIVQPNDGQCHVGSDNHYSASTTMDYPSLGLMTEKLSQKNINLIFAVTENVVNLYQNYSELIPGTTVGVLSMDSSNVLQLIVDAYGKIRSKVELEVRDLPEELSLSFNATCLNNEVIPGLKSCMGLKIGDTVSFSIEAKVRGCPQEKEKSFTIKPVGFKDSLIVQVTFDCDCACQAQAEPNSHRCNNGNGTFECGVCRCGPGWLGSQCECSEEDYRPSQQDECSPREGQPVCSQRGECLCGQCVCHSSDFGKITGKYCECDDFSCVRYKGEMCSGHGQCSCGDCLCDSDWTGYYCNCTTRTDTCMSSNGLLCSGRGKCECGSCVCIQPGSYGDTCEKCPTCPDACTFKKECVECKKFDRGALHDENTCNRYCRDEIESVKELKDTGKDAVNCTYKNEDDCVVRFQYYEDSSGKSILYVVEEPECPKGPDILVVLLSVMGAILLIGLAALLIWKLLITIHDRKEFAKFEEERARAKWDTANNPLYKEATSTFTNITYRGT
T1 sequence (P06756 31-889 limits assumed): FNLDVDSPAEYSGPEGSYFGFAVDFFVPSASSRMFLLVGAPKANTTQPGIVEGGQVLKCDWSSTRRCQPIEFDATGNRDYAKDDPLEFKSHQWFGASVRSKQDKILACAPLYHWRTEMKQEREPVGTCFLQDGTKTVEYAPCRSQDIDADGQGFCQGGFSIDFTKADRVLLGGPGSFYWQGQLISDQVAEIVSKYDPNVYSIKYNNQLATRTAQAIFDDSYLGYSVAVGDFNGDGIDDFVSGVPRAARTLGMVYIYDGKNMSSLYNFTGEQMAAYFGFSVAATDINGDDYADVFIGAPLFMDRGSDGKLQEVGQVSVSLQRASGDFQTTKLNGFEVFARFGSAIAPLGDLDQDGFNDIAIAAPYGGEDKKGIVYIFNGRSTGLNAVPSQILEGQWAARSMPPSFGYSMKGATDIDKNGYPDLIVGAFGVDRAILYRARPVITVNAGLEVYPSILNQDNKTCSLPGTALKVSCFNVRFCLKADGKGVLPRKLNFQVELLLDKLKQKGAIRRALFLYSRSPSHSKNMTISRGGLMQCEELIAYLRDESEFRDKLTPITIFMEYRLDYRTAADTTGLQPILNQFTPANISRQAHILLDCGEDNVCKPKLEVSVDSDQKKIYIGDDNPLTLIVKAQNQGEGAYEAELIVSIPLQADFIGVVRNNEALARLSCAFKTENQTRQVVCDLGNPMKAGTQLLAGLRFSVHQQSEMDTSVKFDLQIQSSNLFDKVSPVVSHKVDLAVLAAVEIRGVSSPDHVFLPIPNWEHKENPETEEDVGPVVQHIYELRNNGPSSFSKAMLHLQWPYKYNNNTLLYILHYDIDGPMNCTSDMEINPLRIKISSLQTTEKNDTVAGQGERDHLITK
T1 sequence (P06756 891-1048 limits assumed): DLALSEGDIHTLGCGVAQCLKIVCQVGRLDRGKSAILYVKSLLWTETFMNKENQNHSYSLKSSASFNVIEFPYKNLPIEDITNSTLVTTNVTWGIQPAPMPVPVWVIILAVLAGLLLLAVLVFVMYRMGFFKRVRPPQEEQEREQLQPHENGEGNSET

Compound | fraction unbound [1] | IC50 [2] [nM] | half-life [3] [h] | Cl [4] [mL/min/kg] | half-life [5] [h] | logP [6] | Cl [7] [mL/min/kg] | IC50 [8] [nM] | bioavailability [9] [%] | bioavailability [10] [%]
Cc1ccc(NCc2ccc3c(n2)NCCC3)c(=O)n1CC(=O)N[C@@H](CC(=O)O)c1cccnc1 | 0.088 | 1 | 0.8 | 21 | 0.8 | -1.46 | 21 | – | – | –
O=C(O)C[C@H](NC(=O)Cn1c(C2CC2)c(Cl)nc(NCc2ccc3c(n2)NCCC3)c1=O)c1cccc(F)c1 | – | – | – | – | – | 1.1 | – | 2.7 | – | –
O=C(O)C[C@H](NC(=O)CN1CC[C@H](CCc2ccc3c(n2)NCCC3)C1=O)c1cccnc1 | 0.446 | – | 1 | – | 1 | – | – | 0.4 | – | –
O=C(O)C[C@H](NC(=O)Cn1cccc(NCc2ccc3c(n2)NCCC3)c1=O)c1cccnc1 | – | 1.4 | – | – | – | 1.55 | – | – | – | –
O=C(O)C[C@H](NC(=O)Cn1c(C2CC2)c(Cl)nc(NCc2ccc3c(n2)NCCC3)c1=O)c1cnc2ccccc2c1 | – | – | – | – | – | 1.12 | – | 0.7 | – | –
O=C(O)C[C@H](NC(=O)Cc1cccc(CCc2ccc3c(n2)NCCC3)c1)c1cccnc1 | – | – | – | – | – | – | – | 21 | – | –
Cc1c(Cl)nc(NCc2ccc3c(n2)NCCC3)c(=O)n1CC(=O)N[C@@H](CC(=O)O)c1cccc(F)c1 | 0.015 | – | 2.1 | 28 | 2.1 | 0.61 | 28 | 2.1 | – | –
Cc1cnc(NCc2ccc3c(n2)NCCC3)c(=O)n1CC(=O)N[C@@H](CC(=O)O)c1cccnc1 | – | 0.8 | – | – | – | – | – | – | – | –
O=C(O)C[C@H](NC(=O)Cn1c(C2CC2)ccc(NCc2ccc3c(n2)NCCC3)c1=O)c1cccc(F)c1 | 0.006 | 0.8 | 0.8 | 20 | 0.8 | 0.54 | 20 | – | 3 | 3
O=C(O)C[C@H](NC(=O)Cn1c(-c2ccccc2)c(Cl)nc(NCc2ccc3c(n2)NCCC3)c1=O)c1cccc(F)c1 | – | – | – | – | – | 1.6 | – | 112 | – | –
C#C[C@H](CC(=O)O)NC(=O)Cn1c(C2CC2)ccc(NCc2ccc3c(n2)NCCC3)c1=O | – | 9 | – | – | – | -0.97 | – | – | – | –
O=C(O)C[C@H](NC(=O)Cn1c(C2CC2)cnc(NCc2ccc3c(n2)NCCC3)c1=O)c1cccnc1 | – | – | – | – | – | 0.25 | – | 0.2 | – | –
O=C(O)C[C@H](NC(=O)Cn1c(C2CC2)cnc(NCc2ccc3c(n2)NCCC3)c1=O)c1ccc2c(c1)OCO2 | 0.025 | – | 1.1 | 26 | 1.1 | -0.1 | 26 | 0.2 | 0.3 | 0.3
CCCc1ccc(NCc2ccc3c(n2)NCCC3)c(=O)n1CC(=O)N[C@@H](CC(=O)O)c1cccnc1 | – | 1.4 | – | – | – | -0.48 | – | – | – | –
O=C(O)C[C@H](NC(=O)Cn1c(C2CC2)c(Cl)nc(NCc2ccc3c(n2)NCCC3)c1=O)c1ccc2c(c1)OCC2 | – | – | – | – | – | 0.9 | – | 0.2 | – | –
O=C(O)C[C@H](NC(=O)Cc1ccc(CCc2ccc3c(n2)NCCC3)s1)c1cccnc1 | – | 246 | – | – | – | – | – | – | – | –
O=C(O)C[C@H](NC(=O)Cn1c(C2CC2)cnc(NCc2ccc3c(n2)NCCC3)c1=O)c1cccc(F)c1 | 0.025 | – | 1.1 | 26 | 1.1 | 0.15 | 26 | 1.4 | 0.3 | 0.3
CCc1c(Cl)nc(NCc2ccc3c(n2)NCCC3)c(=O)n1CC(=O)N[C@@H](CC(=O)O)c1cccc(F)c1 | – | – | – | – | – | 1.3 | – | 9.3 | – | –
Cc1cnc(NCc2ccc3c(n2)NCCC3)c(=O)n1CC(=O)N[C@@H](CC(=O)O)c1cccc(F)c1 | – | – | – | – | – | -0.31 | – | 1.1 | – | –
O=C(O)C[C@H](NC(=O)Cn1c(C2CC2)ccc(NCc2ccc3c(n2)NCCC3)c1=O)c1ccc2c(c1)OCC2 | – | 0.2 | – | – | – | 0.28 | – | – | – | –
O=C(O)C[C@H](NC(=O)Cn1c(C2CC2)ccc(NCc2ccc3c(n2)NCCC3)c1=O)c1cccnc1 | – | 0.2 | – | – | – | -0.8 | – | – | – | –
O=C(O)C[C@H](NC(=O)Cn1c(C2CC2)c(Cl)nc(NCc2ccc3c(n2)NCCC3)c1=O)c1cccnc1 | – | – | – | – | – | -0.26 | – | 0.3 | – | –
CCc1cnc(NCc2ccc3c(n2)NCCC3)c(=O)n1CC(=O)N[C@@H](CC(=O)O)c1cccc(F)c1 | 0.028 | – | 1.4 | 22 | 1.4 | -0.47 | 22 | 1.9 | 4.3 | 4.3
